Test results reported in patent publication US7037917B2, “HIV replication inhibiting pyrimidines” (Janssen Pharmaceutica, N.V., priority 1998, dated 2006).
pIC50: −log10 of the molar value. Counter-ions that a name gives are not always drawn. Like-named read-outs stand apart in the source and are kept apart here.

Assays:
mock-infected MT-4 cells = experiment: cytotoxicity in mock-infected MT-4 cells (MTT); assay type: cell-based
[1] = cytotoxicity in mock-infected MT-4 cells (MTT); assay type: cell-based; details: human, mock-infected MT-4 cells; concentration reducing absorbance of mock-infected MT-4 control by 50%; MTT
HIV-1 [2] = test system: HIV-1
Method: (§1) A rapid, sensitive and automated assay procedure was used for the in vitro evaluation of anti-HIV agents. […] Inhibition of the HIV-induced cytopathic effect was used as the end point. […] The percent protection achieved by the compound in HIV-infected cells was calculated by the following formula:
(§2) [formula] whereby (ODT)HIV is the optical density measured with a given concentration of the test compound in HIV-infected cells; (ODC)HIV is the optical density measured for the control untreated HIV-infected cells; (ODC)MOCK is the optical density measured for the control untreated mock-infected cells; all optical density values were determined at 540 nm. […] The ratio of CC50 to IC50 was defined as the selectivity index (SI).

HIV-1 [3] = experiment: microbe, parasite or virus in culture; details: Human immunodeficiency virus 1, MT4
Method: as §1, §2

melting point | SMILES | CC50 (mock-infected MT-4 cells) | CC50 [1] | other results
 | Cc1cc(C(C)(C)C)cc(C)c1Nc1nc(Nc2ccc(C#N)cc2)ncc1Cl [Compound 12] | 48.5 µM |  | 
 | Cc1cc(C#N)cc(C)c1Nc1nc(Nc2ccc(C#N)cc2)ncc1Cl [Compound 13] | 0.4 µM |  | 
 | N#Cc1ccc(Nc2ncc(Cl)c(Nc3c(F)cc(Br)cc3Br)n2)cc1 [Compound 11] | 0.4 µM |  | 
 | Cc1cc(C)c(Nc2nc(Nc3ccc(C#N)cc3)ncc2Br)c(C)c1 [Compound 3, 4-[[5-bromo-4-[(2,4,6-trimethylphenyl)amino]-2-pyrimidinyl]amino]benzonitrile] |  | 4.4 µM | 
185 to 186 °C | CONc1nc(Nc2ccc(C#N)cc2)nc(Oc2c(C)cc(C#N)cc2C)c1Br [Compound 48, 4-[[5-bromo-4-(4-cyano-2,6-dimethylphenoxy)-6-(methoxyamino)-2-pyrimidinyl]amino]benzonitrile] |  |  | 
165 to 175 °C | C#Cc1cnc(Nc2ccc(C#N)cc2)nc1Nc1c(C)cc(C)cc1C [Compound 52, 4-[[5-ethynyl-4-[(2,4,6-trimethylphenyl)amino]-2-pyrimidinyl]amino]benzonitrile] |  |  | 
 | Cc1cc(C#N)cc(C)c1Oc1nc(N(COC(=O)C(C)(C)C)c2ccc(C#N)cc2)ncc1Br [Compound 60] | 74.5 µM |  | pIC50 (HIV-1 [2]; dose achieving 50% protection of HIV-infected MT-4 cells against cytopathic effect, MTT, OD 540 nm): 8.70
 | Cc1cc(C)c(Sc2nc(Nc3ccc(C#N)cc3)ncc2Cl)c(C)c1 [Compound 7] | > 100 µM |  | 
208 to 210 °C | Cc1cc(C#N)cc(C)c1Oc1nc(Nc2ccc(C#N)cc2)nc(NCCN2CCCC2)c1Br.Cl |  |  | 
 | Cc1cc(C#N)cc(C)c1Oc1nc(Nc2ccc(C#N)cc2)ncc1Br [Compound 17, 4-[[5-bromo-4-(4-cyano-2,6-dimethylphenoxy)-2-pyrimidinyl]amino]benzonitrile] |  | > 10 µM | 
 | COC(=O)COCC(=O)N(c1ccc(C#N)cc1)c1ncc(Br)c(Oc2c(C)cc(C#N)cc2C)n1 [Compound 61] |  | > 100 µM | SI (selectivity index) (HIV-1 [2]; ratio of CC50 to IC50): >52631; pIC50 (HIV-1 [3]): 8.70
209 to 214 °C | Cc1cc(C)c(Nc2nc(Nc3ccc(C#N)cc3)ncc2-c2ccccc2)c(C)c1 [Compound 53, 4-[[5-phenyl-4-[(2,4,6-trimethylphenyl)amino]-2-pyrimidinyl]amino]benzonitrile] |  |  | 
 | Cc1cc(C#N)cc(C)c1Oc1nc(Nc2ccc(C#N)cc2)ncc1Cl [Compound 18] | > 10 µM |  | 
 | Cc1cc(Cl)cc(C)c1Oc1nc(Nc2ccc(C#N)cc2)ncc1Cl [Compound 16] | > 100 µM |  | 
 | Cc1cc(C)c(Nc2nc(Nc3ccc(C#N)cc3)nc(N)c2Cl)c(C)c1.O=C(O)C(F)(F)F [Compound 4, 4-[[4-amino-5-chloro-6-[(2,4,6-trimethylphenyl)amino]-2-pyrimidinyl]amino]benzonitrile trifluoroacetate (1:1)] |  | 10 µM | 
 | Cc1cc(C)c(Nc2ncc(Br)c(Nc3ccc(C#N)cc3)n2)c(C)c1 [Compound 2, 4-[[5-bromo-2-[(2,4,6-trimethylphenyl)amino]-4-pyrimidinyl]amino]benzonitrile] |  | 82.6 µM | 

melting point | SMILES | CC50 (mock-infected MT-4 cells) | CC50 [1] | other results
220 to 221 °C | Cc1cc(C)c(Nc2nc(Nc3ccc(C#N)cc3)nc(Cl)c2Br)c(C)c1 [Compound 41, 4-[[5-bromo-4-chloro-6-[(2,4,6-trimethylphenyl)amino]-2-pyrimidinyl]amino]benzonitrile] |  |  | 
224 to 225 °C | Cc1cc(C)c(Nc2nc(Nc3ccc(C#N)cc3)ncc2N)c(C)c1 (as salt: trifluoroacetate) [Compound 51, 4-[[5-amino-4-[(2,4,6-trimethylphenyl)amino]-2-pyrimidinyl]amino]benzonitrile] |  |  | 
> 300 °C | Cc1cc(C#N)cc(C)c1Oc1nc(Nc2ccc(C#N)cc2)ncc1N [Compound 50, 4-[[5-amino-4-(4-cyano-2,6-dimethylphenoxy)-2-pyrimidinyl]amino]benzonitrile] |  |  | 
 | Cc1cc(Br)c(Nc2nc(Nc3ccc(C#N)cc3)ncc2Cl)c(Br)c1 [Compound 10, 4-[[5-chloro-4-[(2,6-dibromo-4-methylphenyl)amino]-2-pyrimidinyl]amino]benzonitrile] |  | 0.4 µM | 
 | Cc1cc(Br)cc(C)c1Oc1nc(Nc2ccc(C#N)cc2)ncc1Cl [Compound 8] | > 100 µM |  | 
 | Cc1cc(C)c(Nc2nc(Nc3ccc(C#N)cc3)ncc2Cl)c(C)c1 [Compound 5, 4-[[5-chloro-4-[(2,4,6-trimethylphenyl)amino]-2-pyrimidinyl]amino]benzonitrile] |  | 0.4 µM | 
 | Cc1cc(Br)cc(Cl)c1Oc1nc(Nc2ccc(C#N)cc2)ncc1Cl [Compound 15] | > 100 µM |  | 
 | Cc1cc(C#N)cc(C)c1Oc1nc(Nc2ccc(C#N)cc2)nc(N)c1Br [Compound 46, 4-[[4-amino-5-bromo-6-(4-cyano-2,6-dimethylphenyloxy)-2-pyrimidinyl]amino]benzonitrile] |  | > 200 µM | 
260 to 262 °C | Cc1cc(C#N)cc(C)c1Oc1nc(Nc2ccc(C#N)cc2)nc(C)c1Br [Compound 44, 4-[[5-bromo-4-(4-cyano-2,6-dimethylphenoxy)-6-methyl-2-pyrimidinyl]amino]benzonitrile] |  |  | 
277 to 280 °C | Cc1cc(C#N)cc(C)c1Nc1nc(Nc2ccc(C#N)cc2)ncc1Br [Compound 45, 4-[[5-bromo-6-[(4-cyano-2,6-dimethylphenyl)amino]-2-pyrimidinyl]amino]benzonitrile] |  |  | 
259 to 260 °C | Cc1cc(C#N)cc(C)c1Nc1nc(Nc2ccc(C#N)cc2)nc(Cl)c1Br [Compound 42, 4-[[5-bromo-4-chloro-6-[(4-cyano-2,6-dimethylphenyl)amino]-2-pyrimidinyl]amino]benzonitrile] |  |  | 
 | Cc1cc(C)c(Nc2ncc(Cl)c(Nc3ccc(C#N)cc3)n2)c(C)c1 [Compound 1, 4-[[5-chloro-2-[(2,4,6-trimethylphenyl)amino]-4-pyrimidinyl]amino]benzonitrile] |  | 10.9 µM | 
 | Cc1cc(Br)cc(C)c1Nc1nc(Nc2ccc(C#N)cc2)ncc1Cl [Compound 9] | 1.2 µM |  | 
237 to 242 °C | C=Cc1cnc(Nc2ccc(C#N)cc2)nc1Nc1c(C)cc(C)cc1C (as salt: trifluoroacetate) [Compound 54, 4-[[5-ethenyl-4-[(2,4,6-trimethylphenyl)amino]-2-pyrimidinyl]amino]benzonitrile] |  |  | 
 | Cc1cc(C)c(Oc2nc(Nc3ccc(C#N)cc3)ncc2Cl)c(C)c1 [Compound 6, 4-[[5-chloro-4-(2,4,6-trimethylphenoxy)-2-pyrimidinyl]amino]benzonitrile] |  | > 100 µM | 
